Assay results from patent US4663332A, “5-substituted N-alkylated tetrazoles” (Hoffman-La Roche Inc., priority 1985, dated 1987).

How the values were obtained:
[1] = tested on: LTD4; assay: Leukotriene (LTD4) Induced arrhythmia and Hypertension Test; type: in vivo, guinea pig (Hartley); details: 100 mg/kg po, 3 hour pretreatment, conscious guinea pigs; for No. Animals with Abnormal Beat/No. Tested: first two minutes after LTD4, saline control 12/12; for ↑ABP (increase in blood pressure after LTD4): saline control 30 ± 4; for ↓ABP (decrease in blood pressure after LTD4): saline control -45 ± 4
Method: (6) Leukotriene (LTD4) Induced arrhythmia and Hypertension Test
Male Hartley guinea pigs are anesthetized with sodium pentobarbital and prepared for monitoring direct blood pressure and injecting drugs intravenously by catheterizing the right carotid artery and right jugular vein. Blood pressure, heart rate, and Lead II ECG are monitored in the conscious animal 24 hours later.
The oral activity of a drug is evaluated by pretreating animals 3 hours before the LTD4 challenge.
Intravenous administration of LTD4 2.5 μg/kg) is associated with an increase in blood pressure lasting approximately 1-2 minutes followed by a decrease lasting approximately 5-15 minutes. Abnormal beats consisting of premature ventricular contractions, ST elevation or depression, atrioventricular conduction block, or dissociated p waves begin during the rise in blood pressure; the peak effect occurs approximately 40 seconds after LTD4. The number of animals with abnormal beats within the first two minutes after the injection of LTD4 over the total number of animals tested is presented in Table III. During the hypotensive response, the animal usually collapses during the 2nd or 3rd minute after LTD4 and regains posture approximately 10 minutes after LTD4.

[2] = tested on: PAF; assay: Inhibition of PAF-Induced Platelet Aggregation (Inhib. of PAF Platelet Reduction); type: in vivo, guinea pig; details: Cavia porcellus, iv, 3 mg/kg i.v.
Method: (5) Inhibition of PAF-Induced Platelet Aggregation (Inhib. of PAF Platelet Reduction)
Guinea pigs (anesthetized) are set up to withdraw blood for platelet counting. The animal is allowed to stabilize after completion of surgical procedures. The carotid catheter is allowed to bleed back blood and then is filled, prior to each sample withdrawal with sodium citrate 3.8% (0.15 ml). Blood (0.25 ml) is withdrawn 30 seconds prior to the PAF challenge and at 15, 30 and 60 seconds after the PAF challenge. This first PAF challenge is used as the control, assuming sufficient decreases in platelet count are observed. The amount of PAF used will be approximately 50 ng/kg, however, this can be increased to achieve the desired decreases in platelet count. Fifteen minutes after the control PAF challenge, intravenous drug dosing begins, with animals being dosed at 30 minute intervals; PAF challenge follows 15 minutes after each intravenous dose. Three intravenous drug doses are used in each experiment. Initial drug doses are 1, 3 and 10 mg/kg i.v. Inhibition of PAF platelet reduction at 3 mg/kg i.v. for representative compounds of the invention are summarized hereinafter in Tables I and II. Percent inhibition is [formula]

[3] = target: T1, TXA2 synthase (Homo sapiens, UniProt P24557); assay: Thromboxane Synthase Inhibition, In Vitro (TXA2 Synth. Inhib.); type: biochemical; details: human platelet microsomes, 10 μM 14C-PGH2, 22° C., 2 min
T1 construct: using microsomal fractions from human platelets as enzyme source; from tissue; host or cells: microsomal fractions from human platelets
T1 sequence (P24557 1-533): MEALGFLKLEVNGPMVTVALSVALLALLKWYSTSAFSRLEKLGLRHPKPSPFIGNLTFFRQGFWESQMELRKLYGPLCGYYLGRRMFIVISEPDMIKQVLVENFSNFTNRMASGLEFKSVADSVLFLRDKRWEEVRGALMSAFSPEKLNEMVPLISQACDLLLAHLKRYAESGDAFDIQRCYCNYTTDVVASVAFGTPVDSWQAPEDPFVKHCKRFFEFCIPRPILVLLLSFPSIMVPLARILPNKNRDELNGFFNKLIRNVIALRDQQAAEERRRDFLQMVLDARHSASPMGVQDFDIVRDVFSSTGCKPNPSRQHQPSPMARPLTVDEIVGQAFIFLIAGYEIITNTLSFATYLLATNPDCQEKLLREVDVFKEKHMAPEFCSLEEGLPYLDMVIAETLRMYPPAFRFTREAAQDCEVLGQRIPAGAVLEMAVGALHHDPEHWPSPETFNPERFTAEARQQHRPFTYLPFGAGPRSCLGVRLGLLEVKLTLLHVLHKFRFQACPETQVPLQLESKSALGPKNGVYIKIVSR
Method: (2) Thromboxane Synthase Inhibition, In Vitro (TXA2 Synth. Inhib.)
TXA2 synthase activity is measured by following the conversion of ^14 C-prostaglandin endoperoxide (PGH2) to ^14 C-thromboxane A2 (TXA2) using microsomal fractions from human platelets as enzyme source. In the aqueous incubation medium, the TXA2 decomposes rapidly into TXB2. The amount of TXA2 synthase is adjusted so that under the conditions of the assay approximately 80-90% of the substrate, PGH2, is converted to product in control tubes. To prepare ^14 C-PGH2, ^14 C-AA (50-60 mCi/mmole; Rose Chem.) is incubated with sheep seminal vesicular gland microsomes for 1.5 minutes at 37° C. and then the ^14 C-PGH2 is extracted with diethylether, purified on columns oof Sephadex LH-20 or silicic acid, and stored in acetone at -70° C. Incubations are done as follows. Sufficient ^14 C-PGH2 to yield a final substrate concentration of 10 μM (30,000 cpm) is added to the incubation tubes and then the acetone is removed under nitrogen. The tubes are placed in an ice bath and then 215 μl of ice cold phosphate buffered saline, 10 μl of ethanol (control) or of test drug in ethanol, and 25 μl of the microsomal suspension are added with mixing in that order as rapidly as possible. The tubes are incubated at 22° C. for 2 minutes, the reaction is stopped and then the radioactive products and the unconverted PGH2 are extracted and analyzed by thin layer chromatography. […] The amount of ^14 C-PGH2 converted to products was used as a measure of TXA2 synthase activity. Inhibitors were tested initially at a final concentration 100 μM. Results obtained with representative compounds of the present invention in this assay are summarized hereafter in Tables I and II. IC50 is the drug concentration (μMolar) which inhibits TXA2 activity by 50%.

[4] = target: T2, PAF binding to dog platelets (Canis lupus familiaris, UniProt A0A8I3NSH0); assay: PAF Radioreceptor Binding Assay (PAF Binding); details: inhibition of 3H-PAF binding to dog platelets, 10 min, room temperature
T2 construct: from tissue; host or cells: washed platelets from citrate-treated dog blood
T2 sequence (A0A8I3NSH0 1-343): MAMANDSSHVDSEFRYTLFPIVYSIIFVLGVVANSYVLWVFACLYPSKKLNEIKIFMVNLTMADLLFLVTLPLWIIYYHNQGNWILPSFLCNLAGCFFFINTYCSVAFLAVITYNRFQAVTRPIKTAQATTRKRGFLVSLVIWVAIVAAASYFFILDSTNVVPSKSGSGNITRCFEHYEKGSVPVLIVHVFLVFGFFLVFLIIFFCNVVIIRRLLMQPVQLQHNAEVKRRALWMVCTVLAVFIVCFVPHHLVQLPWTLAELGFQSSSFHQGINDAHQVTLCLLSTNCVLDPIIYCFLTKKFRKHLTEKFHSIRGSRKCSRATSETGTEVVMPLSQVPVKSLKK
Method: (1) PAF Radioreceptor Binding Assay (PAF Binding)
Platelet rich plasma is prepared by centrifugation of citrate-treated dog blood. Acidification to pH 6.5 with 0.15M citric acid and centrifugation for 10 minutes at 1000×g yields a platelet pellet which is then washed by resuspension in EDTA-Phosphate Buffered Saline (PBS) and recentrifuged. The washed platelet preparation is adjusted to 2×10^7 platelets/50 μl in 0.1% bovine serum albumin-PBS.
To a 400 μl microfuge tube containing 50 μl silicone oil (specific gravity 1.023) is added buffer, PAF standard or analog, or an extract to bring the aqueous volume to 150 μl. 50 μl of ^3 H-PAF (10,000 cpm, 45 Ci/mM) is added followed by 2×10^7 dog platelets. After mixing, incubating for 10 minutes at room temperature, and centrifuging for 1 minute in a Beckman Microfuge B (8000×g), the pellet is removed by clipping off the tip of the tube, the platelets are solubilized with 200 μl of 50% methanol and counted in 10 ml of Aquasol. […] Results obtained with representative copounds of the present invention in this assay are summarized hereinafter in Tables I and II. IC50 is drug concentration (μMolar) which inhibits PAF binding to dog platelets by 50%.

[5] = tested on: PAF; assay: Inhibition of PAF Induced Guinea Pig Bronchoconstriction Test (Inhib. of PAF Broncho.); type: in vivo, guinea pig (Hartley strain); details: Cavia porcellus, iv; 1 mg/kg i.v. (1 min. pretreat)
Method: (3) Inhibition of PAF Induced Guinea Pig Bronchoconstriction Test (Inhib. of PAF Broncho.)
Male guinea pigs (Hartley strain) weighing 300 to 500 g are anesthetized with urethane (2 g/kg) intraperitoneally and a polyethylene cannula is inserted into the jugular vein for drug administration. Tracheal pressure is recorded from a cannula inserted in the trachea and connected to a Statham pressure transducer. Propranolol (0.1 mg/kg) is administered intravenously five minutes before challenge with synthetic PAF, the animal's skeletal muscles are then paralyzed with succinylcholine (1.2 mg/kg i.v.), and the animal is respirated using a Harvard small animal respirator operating at 40 breaths/min and 2.5 cc stroke volume. Under these conditions PAF induces a dose-dependent increase in ventilatory pressure over a dose range of 0.5 to 5 μg/kg i.v. For screening purposes animals are challenged with a single dose of PAF (10 μg/kg i.v.).
The peak increase in ventilatory pressure (cm H2 O) is recorded for three control animals and five drug-treated animals and the percent inhibition determined from the following formula [formula] Results obtained with representative compounds of the invention in this test are summarized hereinafter in Tables I and II.

[6] = tested on: PAF; assay: Inhibition of PAF-Induced Rat Skin Wheal Test (Inhib. of PAF Skin Wheal); type: in vivo, Sprague-Dawley rats; details: 5 mg/kg i.v., 5 ng PAF intradermally
Method: (4) Inhibition of PAF-Induced Rat Skin Wheal Test (Inhib. of PAF Skin Wheal)
This test evaluates the ability of compounds to inhibit PAF-induced increases in vascular permeability in the skin of Sprague-Dawley rats. PAF induces a dose-dependent skin wheal response in this system over a dose range of 0.0001 to 1 μg/0.05 ml injection. The profound vasoactive activity of PAF is emphasized by the fact that the maximum skin wheal response is considerably greater than that obtained with LTE and an EC50 response is elicited at a 10-fold lower dose. […] Thirty minutes later the animals are sacrificed and the increase in vascular permeability induced by the migration of dye into the injection point in the skin is determined. For this purpose, rats are sacrificed by cervical dislocation,the dorsal skin is removed, the long and short axis of each animal is measured with a metric vernier caliper and the average diameter is obtained. Results obtained are measured as % of migration of dye as compared to untreated animals. More specifically, results are measured as a percent inhibition of the diameters of the wheals formed in a treated animals as compared to untreated animals. […]

| IC50 [3] | IC50 [4] | Structure (SMILES) | No. Animals with Abnormal Beat/No. Tested [1] | ↑ABP (increase in blood pressure after LTD4) [1] | ↓ABP (decrease in blood pressure after LTD4) [1] | inhibition in vivo at 3 mg/kg [2] | inhibition in vivo at 1 mg/kg [5] | inhibition of PAF skin wheal [6] |
| --- | --- | --- | --- | --- | --- | --- | --- | --- |
|  |  | CCCc1c(OCCCc2nnnn2CCCc2cccnc2)ccc(C(C)=O)c1O [3 3, 1-[2-Hydroxy-3-propyl-4-[3-[1-[3-(3-pyridinyl)propyl]-1H-tetrazol-5-yl]propoxy]phenyl]ethanone] | 1/4 | 14 ± 5 Δmm Hg | -23 ± 10 Δmm Hg |  |  |  |
|  |  | CCCc1c(OCCCCCc2nnnn2CCCc2cccnc2)ccc(C(C)=O)c1O [5 3, 1-[2-hydroxy-3-propyl-4-[5-[1-[3-(3-pyridinyl)propyl]-1H-tetrazol-5-yl]pentyloxy]phenyl]ethanone] | 0/4 | 13 ± 8 Δmm Hg | -20 ± 9 Δmm Hg |  |  |  |
| 100 to 1000 nM | 450 nM | CCCc1c(OCCCc2nnnn2CCCCc2cccnc2)ccc(C(C)=O)c1O [H H 3 4 3-pyridyl, 1-[2-Hydroxy-3-propyl-4-[3-[1-[4-(3-pyridinyl)butyl]-1H-tetrazol-5-yl]propoxy]phenyl]ethanone] |  |  |  | 40% | 59 ± 12% |  |
| 100 to 1000 nM | 150 nM | CCCc1c(OCCCCCc2nnnn2CCCc2cccnc2)ccc(C(C)=O)c1O [H H 5 3 3-pyridyl, 1-[2-hydroxy-3-propyl-4-[5-[1-[3-(3-pyridinyl)propyl]-1H-tetrazol-5-yl]pentyloxy]phenyl]ethanone] |  |  |  | 12% | 96 ± 1% |  |
| 100 to 1000 nM | 275 nM | CCCc1c(OCCCCCc2nnnn2CCCCc2cccnc2)ccc(C(C)=O)c1O [H H 5 4 3-pyridyl, 1-[2-Hydroxy-3-propyl-4-[5-[1-[4-(3-pyridinyl)butyl]-1H-tetrazol-5-yl]pentyloxy]phenyl]ethanone] |  |  |  | 0% | 58 ± 14% |  |

| Structure (SMILES) | IC50 [3] | IC50 [4] | No. Animals with Abnormal Beat/No. Tested [1] | ↑ABP (increase in blood pressure after LTD4) [1] | ↓ABP (decrease in blood pressure after LTD4) [1] | inhibition in vivo at 3 mg/kg [2] | inhibition in vivo at 1 mg/kg [5] | inhibition of PAF skin wheal [6] |
| --- | --- | --- | --- | --- | --- | --- | --- | --- |
| CCCc1c(OCCCCc2nnnn2CCCn2ccnc2)ccc(C(C)=O)c1O [H H 4 3 1-imidazolyl, 1-[2-Hydroxy-3-propyl-4-[4-[1-[3-(1H-imidazol-1-yl)propyl]-1H-tetrazol-5-yl]butoxy]phenyl]ethanone] | 100 to 1000 nM | 175 nM |  |  |  | 3% | 8 ± 8% |  |
| CCCc1c(OCCCCc2nnnn2CCCc2cccnc2)ccc(C(C)=O)c1O [H H 4 3 3-pyridyl, 1-[2-Hydroxy-3-propyl-4-[4-[1-[3-(3-pyridinyl)propyl]-1H-tetrazol-5-yl]butoxy]phenyl]ethanone] | 100 to 1000 nM | 125 nM |  |  |  |  | 99% | 65±3% |
